Results: patent EP1074545A1, “ISOQUINOLINESULFONAMIDE DERIVATIVES AND DRUGS CONTAINING THE SAME AS THE ACTIVE INGREDIENT” (Hidaka, Hiroyoshi, priority 1998, dated 1999)
Where a name gives a salt, the structure may show the parent alone.

System: HIV-infected cells
Assay: p24 protein production inhibiting effect (in vitro), quantitation of p24 protein by ELISA
Type: cell-based
Details: for content of p24 protein, Day 1: control 569542; for content of p24 protein, Day 5: control 902226; for content of p24 protein, Day 0: control 0
Experimental: p24 Protein Production Inhibiting Effect (in vitro)
Quantitation of p24 protein was conducted by ELISA.
HIV-infected cells were lysed in a lysis buffer, and were poured in predetermined constant aliquots into the individual wells of a 96-well microplate. Subsequent to adsorption of an antigen, a solution of a biotinylated anti-p24 monoclonal antibody was added. A streptavidin-labeled peroxidase was added, followed by the addition of a substrate for staining. One, three and five days later or 2 and 4 days later, a terminating solution was added to terminate the reaction. Concerning each of the wells, the absorbance at 450 nm was measured to determine the content of p24 protein in the well.

[1] = Table 5, compound at 1.60 µg/mℓ, control 349386
[2] = Table 5, compound at 1.60 µg/mℓ, control 435119

SMILES: O=S(=O)(c1cccc2c(O)nccc12)N1CCCNCC1 [Example 6, 1-(1-Hydroxy-5-isoquinolinesulfonyl)hexahydro-1H-1,4-diazepine·monohydrochloride]
- content of p24 protein, Day 1 (Table 1, compound at 20 µg/m): 551489 pg/mL
- content of p24 protein, Day 2 (Table 1, compound at 20 µg/m, control 881594): 645621 pg/mL
- content of p24 protein, Day 5 (Table 1, compound at 20 µg/m): 698489 pg/mL

SMILES: CCCCCCOc1ncc(C)c2c(S(=O)(=O)N3CCCNCC3)cccc12 [Example 14, 1-(1-n-Hexyloxy-4-methyl-5-isoquinolinesulfonyl)hexahydro-1H-1,4-diazepine]
- content of p24 protein, Day 0 (Table 2, compound at 8 µg/mℓ): 0 pg/m
- content of p24 protein, Day 2 (Table 2, compound at 8 µg/mℓ, control 46732): 1022 pg/m
- content of p24 protein, Day 4 (Table 2, compound at 8 µg/mℓ, control 104484): 0 pg/m

SMILES: CCCCCCCCOc1ncc(C)c2c(S(=O)(=O)N3CCCNCC3)cccc12 [Example 20, 1-(4-Methyl-1-n-octyloxy-5-isoquinolinesulfonyl)hexahydro-1H-1,4-diazepine]
- content of p24 protein, Day 4 (Table 4, compound at 0.32 µg/mℓ, control 38991): 31250 pg/mL
- content of p24 protein, Day 2 (Table 4, compound at 0.32 µg/mℓ, control 58304.5): 31250 pg/mL

SMILES: CCCCCCCCCCCCCCCCCCOc1ncc(C)c2c(S(=O)(=O)N3CCCNCC3)cccc12 [Example 21, 1-(4-Methyl-1-n-octadecyloxy-5-isoquinolinesulfonyl)hexahydro-1H-1,4-diazepine]
- content of p24 protein, Day 4 (Table 4, compound at 0.16 µg/mℓ, control 38991): 31250 pg/mL
- content of p24 protein, Day 2 (Table 4, compound at 0.16 µg/mℓ, control 58304.5): 31250 pg/mL

SMILES: Cc1cnc(OC(C)C)c2cccc(S(=O)(=O)N3CCCNCC3)c12 [Example 22, 1-(1-Isopropyloxy-4-methyl-5-isoquinolinesulfonyl)hexahydro-1H-1,4-diazepine]
- content of p24 protein, Day 4 (Table 4, compound at 1.60 µg/mℓ, control 38991): 20897 pg/mL
- content of p24 protein, Day 2 (Table 4, compound at 1.60 µg/mℓ, control 58304.5): 17405 pg/mL

SMILES: CCCCC(CC)COc1ncc(C)c2c(S(=O)(=O)N3CCCNCC3)cccc12 (stereo not shown) [Example 25, 1-(1-(2-Ethyl)hexyloxy-4-methyl-5-isoquinolinesulfonyl)hexahydro-1H-1,4-diazepine]
- content of p24 protein, Day 4 (Table 4, compound at 4.00 µg/mℓ, control 38991): 16416 pg/mL
- content of p24 protein, Day 2 (Table 4, compound at 4.00 µg/mℓ, control 58304.5): 25557 pg/mL

SMILES: CCCCCCOc1nccc2c(S(=O)(=O)N3CCCNCC3)cccc12 [Example 28, 1-(1-Hexyloxy-5-isoquinolinesulfonyl)hexahydro-1H-1,4-diazepine]
- content of p24 protein, Day 4 [1]: 69877 pg/mL
- content of p24 protein, Day 2 [2]: 156250 pg/mL

SMILES: Cc1cncc2cccc(S(=O)(=O)N3CCNCC3)c12 [Example 29, 1-(4-Methyl-5-isoquinolinesulfonyl)piperazine]
- content of p24 protein, Day 0 (Table 2, compound at 0.32 µg/mℓ): 0 pg/m
- content of p24 protein, Day 2 (Table 2, compound at 0.32 µg/mℓ, control 46732): 69877 pg/m
- content of p24 protein, Day 4 (Table 2, compound at 0.32 µg/mℓ, control 104484): 69877 pg/m

SMILES: Cc1cnc(O)c2cccc(S(=O)(=O)N3CCCNC(C)C3)c12 (stereo not shown) [Example 36, 1-(1-Hydroxy-4-methyl-5-isoquinolinesulfonyl)-3-methylhexahydro-1H-1,4-diazepine·monohydrochloride]
- content of p24 protein, Day 4 (Table 5, compound at 3.20 µg/mℓ, control 349386): 82082 pg/mL
- content of p24 protein, Day 2 (Table 5, compound at 3.20 µg/mℓ, control 435119): 104484 pg/mL

SMILES: CNc1ncc(C)c2c(S(=O)(=O)N3CCCNCC3)cccc12 [Example 41, 1-(4-Methyl-1-N-methylamino-5-isoquinolinesulfonyl)hexahydro-1H-1,4-diazepine]
- content of p24 protein, Day 0 (Table 2, compound at 0.8 µg/mℓ): 0 pg/m
- content of p24 protein, Day 2 (Table 2, compound at 0.8 µg/mℓ, control 46732): 82082 pg/m
- content of p24 protein, Day 4 (Table 2, compound at 0.8 µg/mℓ, control 104484): 66977 pg/m

SMILES: C=CCOc1ncc(C)c2c(S(=O)(=O)N3CCCNCC3)cccc12 [Example 46, 1-(1-Allyloxy-4-methyl-5-isoquinolinesulfonyl)hexahydro-1H-1,4-diazepine]
- content of p24 protein, Day 4 (Table 5, compound at 8.00 µg/mℓ, control 349386): 156250 pg/mL
- content of p24 protein, Day 2 (Table 5, compound at 8.00 µg/mℓ, control 435119): 233662 pg/mL

SMILES: Cc1cnc(OCc2c(F)c(F)c(F)c(F)c2F)c2cccc(S(=O)(=O)N3CCCNCC3)c12 [Example 48, 1-(4-Methyl-1-pentafluorophenylmethyloxy-5-isoquinolinesulfonyl)hexahydro-1H-1,4-diazepine]
- content of p24 protein, Day 4 [1]: 297434 pg/mL
- content of p24 protein, Day 2 [2]: 82082 pg/mL

SMILES: Cc1cnc(O)c2cccc(S(=O)(=O)N3CCCNCC3C)c12 (stereo not shown) [Example 51, 1-(1-Hydroxy-4-methyl-5-isoquinolinesulfonyl)2-methylhexahydro-1H-1,4-diazepine·monohydrochloride]
- content of p24 protein, Day 1 (Table 1, compound at 10 µg/m): 641752 pg/mL
- content of p24 protein, Day 2 (Table 1, compound at 10 µg/m, control 881594): 624989 pg/mL
- content of p24 protein, Day 5 (Table 1, compound at 10 µg/m): 566963 pg/mL

SMILES: CCCCCCOc1ncc(C)c2c(S(=O)(=O)N3CCCNCC3C)cccc12 (stereo not shown) [Example 53, 1-(1-n-Hexyloxy-4-methyl-5-isoquinolinesulfonyl)2-methylhexahydro-1H-1,4-diazepine]
- content of p24 protein, Day 4 (Table 5, compound at 40.0 µg/mℓ, control 349386): 233662 pg/mL
- content of p24 protein, Day 2 (Table 5, compound at 40.0 µg/mℓ, control 435119): 94822 pg/mL

SMILES: O=S(=O)(c1cccc2cncc(F)c12)N1CCCNCC1 [Example 55, 1-(4-Fluoro-5-isoquinolinesulfonyl)hexahydro-1H-1,4-diazepine]
- content of p24 protein, Day 4 (Table 3, compound at 4 µg/mℓ, control 82079): 59487 pg/mL
- content of p24 protein, Day 2 (Table 3, compound at 4 µg/mℓ, control 104484): 59487 pg/mL

SMILES: Cc1cncc2c(S(=O)(=O)N3CCCNCC3)cccc12 [Example 66, 1-(4-Methyl-8-isoquinolinesulfonyl)hexahydro-1H-1,4-diazepine]
- content of p24 protein, Day 4 (Table 4, compound at 200 µg/mℓ, control 38991): 20897 pg/mL
- content of p24 protein, Day 2 (Table 4, compound at 200 µg/mℓ, control 58304.5): 25557 pg/mL
